According to the supplement of paper PMC10307832:

What was measured:
Assay in all cases: relative viability (nuclei count vs DMSO), 5 days (fraction); higher = more cells survive
[1] = compound: COc1nc(N)nc2c1ncn2[C@@H]1O[C@H](CO)[C@@H](O)[C@@H]1O [Nelarabine] + CC(=O)Nc1cccc(-n2c(=O)n(C3CC3)c(=O)c3c(Nc4ccc(I)cc4F)n(C)c(=O)c(C)c32)c1 [Trametinib] (partner 0.02 µM)
Method in brief: (§1)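 Lung cancer cell lines were pin-tool dosed in 1536-well plates on the day after seeding, with either a lone drug or a fixed anchor-drug dose plus five library-drug doses (not always all listed) in √10 steps. Nuclei were counted on 4× images after 5 days. Relative viability is the ratio of treated-well to vehicle-well nuclei counts, with each value a median of duplicate plates.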

[2] = compound: C=CCn1c(=O)c2cnc(Nc3ccc(N4CCN(C)CC4)cc3)nc2n1-c1cccc(C(C)(C)O)n1 [Adavosertib] + Cc1nc(Nc2ncc(C(=O)Nc3c(C)cccc3Cl)s2)cc(N2CCN(CCO)CC2)n1 [Dasatinib] (partner 0.075 µM)
Method in brief: as §1

[3] = compound: COc1nc(N)nc2c1ncn2[C@@H]1O[C@H](CO)[C@@H](O)[C@@H]1O [Nelarabine] + COc1cc2c(Oc3ccc(NC(=O)C4(C(=O)Nc5ccc(F)cc5)CC4)cc3F)ccnc2cc1OCCCN1CCOCC1 [Foretinib] (partner 0.25 µM)
Method in brief: as §1

[4] = compound: C=CCn1c(=O)c2cnc(Nc3ccc(N4CCN(C)CC4)cc3)nc2n1-c1cccc(C(C)(C)O)n1 [Adavosertib] + CC(C)C[C@H](NC(=O)[C@H](Cc1ccccc1)NC(=O)c1cnccn1)B(O)O [Bortezomib] (partner 0.002 µM)
Method in brief: as §1

Cell Line | relative viability ([1]; first compound 0.01 µM) | relative viability ([1]; first compound 0.03162 µM) | relative viability ([1]; first compound 0.1 µM) | relative viability ([1]; first compound 0.3162 µM) | relative viability ([1]; first compound 1 µM) | relative viability ([2]; first compound 0.01 µM) | relative viability ([2]; first compound 0.03162 µM) | relative viability ([2]; first compound 0.1 µM) | relative viability ([2]; first compound 0.3162 µM) | relative viability ([3]; first compound 0.01 µM) | relative viability ([3]; first compound 0.03162 µM) | relative viability ([3]; first compound 0.1 µM) | relative viability ([3]; first compound 0.3162 µM) | relative viability ([3]; first compound 1 µM) | relative viability ([4]; first compound 0.01 µM) | relative viability ([4]; first compound 0.03162 µM) | relative viability ([4]; first compound 0.1 µM) | relative viability ([4]; first compound 0.3162 µM)
NCI-H838 | 0.572 | 0.586 | 0.473 | 0.621 | 0.575 | 0.291 | 0.326 | 0.31 | 0.285 | 1.24 | 0.937 | 1.08 | 1.08 | 1.09 | 0.993 | 0.946 | 0.754 | 0.824
NCI-H1734 | 0.829 | 0.615 | 0.666 | 0.666 | 0.627 | 0.53 | 0.469 | 0.464 | 0.318 | 1.01 | 0.818 | 0.83 | 0.949 | 0.846 | 1.01 | 1.01 | 1.02 | 0.696
HCC-44 | 1.14 | 1.05 | 1.01 | 1.03 | 0.983 |  |  |  |  |  |  |  |  |  | 0.889 | 0.95 | 0.89 | 1.04
HOP-62 | 0.47 | 0.516 | 0.369 | 0.36 | 0.408 | 0.693 | 0.678 | 0.644 | 0.661 | 1.08 | 1 | 1.12 | 1.05 | 1.05 | 0.941 | 1.08 | 1.03 | 1.03
NCI-H3122 | 0.307 | 0.163 |  | 0.23 | 0.237 | 0.816 | 0.849 | 0.922 | 0.893 | 1.11 | 0.771 |  | 1.05 | 0.962 | 1.12 | 0.992 | 1.11 | 1.09
NCI-H2405 | 0.642 | 0.612 | 0.528 | 0.677 | 0.643 | 0.198 | 0.217 | 0.183 | 0.206 | 1.07 | 1.04 | 0.95 | 0.988 | 1.03 | 0.984 | 1.01 | 1.01 | 1.07
UMC-11 | 0.855 | 0.659 | 0.755 | 0.767 | 0.843 | 0.489 | 0.414 | 0.517 | 0.461 | 1.23 | 0.961 | 0.963 | 1.11 | 0.972 | 0.737 | 0.481 | 0.927 | 0.708
COR-L 105 | 0.351 | 0.398 | 0.448 | 0.383 | 0.482 | 0.285 | 0.308 | 0.331 | 0.246 | 0.953 | 0.991 | 1.26 | 1.08 | 0.967 | 0.984 | 0.719 | 0.855 | 0.627
NCI-H2085 | 0.391 | 0.518 | 0.514 | 0.612 | 0.544 | 0.257 | 0.266 | 0.229 | 0.279 | 0.96 | 1.04 | 0.76 | 0.881 | 1.06 | 1.04 | 1.05 | 1.05 | 1.11
IA-LM |  |  |  |  |  |  |  |  |  | 1.37 | 1.01 | 1.23 | 1.18 | 1.27 | 0.899 | 0.989 | 0.893 | 0.774
NCI-H1792 | 0.541 | 0.513 | 0.418 | 0.373 | 0.508 |  | 0.753 | 0.942 | 0.865 |  |  |  |  |  | 0.974 | 0.918 | 0.972 | 0.968
LK-2 | 0.903 | 0.474 | 0.795 | 0.956 | 0.86 | 0.286 | 0.229 | 0.291 | 0.359 | 1.3 |  | 1.19 | 1.17 | 1.22 |  |  |  | 
NCI-H2009 | 0.28 | 0.224 | 0.215 | 0.287 | 0.266 | 0.318 | 0.294 | 0.297 | 0.178 | 1.19 | 1.2 | 1.31 | 1.22 | 1.27 | 1.09 | 1.05 | 1.04 | 1.02
NCI-H1703 |  |  |  |  |  |  |  |  |  | 0.388 | 0.405 | 0.332 | 0.289 | 0.395 | 0.461 | 0.366 | 0.464 | 0.18
Calu-6 |  |  |  |  |  |  |  |  |  | 1.01 | 0.826 | 0.9 | 0.959 | 0.928 | 0.93 | 1.01 | 1.05 | 0.386
NCI-H1648 |  | 0.656 |  | 0.451 | 0.477 |  |  |  |  |  |  |  |  |  |  |  |  | 
NCI-H1623 |  |  |  |  |  | 0.451 | 0.553 | 0.507 | 0.575 | 0.971 | 0.818 | 0.879 | 0.757 | 0.834 |  |  |  | 
NCI-H1563 |  |  |  |  |  | 0.462 | 0.432 | 0.437 | 0.466 | 0.809 | 0.967 | 0.811 | 0.955 | 0.905 | 0.9 | 0.901 | 0.86 | 0.869
NCI-H522 | 0.82 | 1.03 | 0.662 | 0.726 | 0.742 | 0.83 | 0.749 | 0.944 | 0.739 |  |  |  |  |  |  |  |  | 
NCI-H2170 | 1.26 | 0.804 | 0.997 | 0.944 | 0.911 | 0.522 | 0.48 | 0.608 | 0.389 | 1.21 | 0.974 | 0.934 | 1.02 | 1.07 |  |  |  | 
SK-MES-1 | 0.56 | 0.567 | 0.57 | 0.555 | 0.615 | 0.334 | 0.392 | 0.27 | 0.193 | 1.07 | 0.932 | 0.946 | 0.949 | 1.18 |  |  |  | 
NCI-H2342 | 0.87 | 0.825 | 0.847 | 0.701 | 0.907 | 0.3 | 0.345 | 0.338 | 0.289 | 0.974 | 0.887 | 0.875 | 0.906 | 1.01 |  |  |  | 
A549 |  |  |  |  |  |  |  |  |  | 1.11 | 0.853 | 0.972 | 1.01 | 0.98 |  |  |  | 
NCI-H1793 | 0.474 |  | 0.421 | 0.424 | 0.466 | 0.392 | 0.308 | 0.439 | 0.36 | 0.84 | 0.747 | 0.709 | 0.731 | 0.713 |  |  |  | 
